Data published in ChEMBL document CHEMBL1155531, “Structure guided design of 5-arylindazole glucocorticoid receptor agonists and antagonists” (J Med Chem, 2010).

Legend:
Androgen receptor = molecular target: T1, Androgen receptor (Homo sapiens, UniProt P10275)
T1 sequence (P10275 whole entry): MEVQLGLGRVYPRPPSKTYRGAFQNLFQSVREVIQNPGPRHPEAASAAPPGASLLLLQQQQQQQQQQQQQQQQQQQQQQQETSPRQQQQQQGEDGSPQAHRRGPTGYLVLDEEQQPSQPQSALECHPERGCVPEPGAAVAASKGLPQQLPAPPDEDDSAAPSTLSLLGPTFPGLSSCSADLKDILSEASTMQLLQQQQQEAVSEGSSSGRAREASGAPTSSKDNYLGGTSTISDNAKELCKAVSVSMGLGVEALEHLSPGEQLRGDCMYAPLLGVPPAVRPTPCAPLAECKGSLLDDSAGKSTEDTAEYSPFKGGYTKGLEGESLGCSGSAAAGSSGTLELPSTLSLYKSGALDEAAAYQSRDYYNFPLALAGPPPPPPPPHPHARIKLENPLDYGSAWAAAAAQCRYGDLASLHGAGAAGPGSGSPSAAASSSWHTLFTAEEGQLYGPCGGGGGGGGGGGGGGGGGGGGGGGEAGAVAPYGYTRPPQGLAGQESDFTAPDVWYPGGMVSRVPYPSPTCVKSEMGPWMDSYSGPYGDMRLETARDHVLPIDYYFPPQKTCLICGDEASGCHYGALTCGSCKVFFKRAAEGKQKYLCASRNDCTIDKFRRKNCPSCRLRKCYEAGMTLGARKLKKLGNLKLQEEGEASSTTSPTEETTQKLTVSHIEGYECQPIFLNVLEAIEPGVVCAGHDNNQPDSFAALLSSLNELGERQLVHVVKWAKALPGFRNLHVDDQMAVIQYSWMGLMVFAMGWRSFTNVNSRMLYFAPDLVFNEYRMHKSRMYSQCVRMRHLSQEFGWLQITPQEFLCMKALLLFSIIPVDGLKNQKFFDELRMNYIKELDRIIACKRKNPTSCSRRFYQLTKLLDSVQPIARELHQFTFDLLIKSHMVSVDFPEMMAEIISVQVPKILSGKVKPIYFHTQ

Glucocorticoid receptor [1] = molecular target: T2, Glucocorticoid receptor (Homo sapiens, UniProt P04150); test: Agonist activity at GR in human A549 cells transfected with luciferase gene linked to MMTV promoter assessed as luciferase transactivation activity after 24 hrs; format: functional, cell-based
T2 sequence (P04150 whole entry): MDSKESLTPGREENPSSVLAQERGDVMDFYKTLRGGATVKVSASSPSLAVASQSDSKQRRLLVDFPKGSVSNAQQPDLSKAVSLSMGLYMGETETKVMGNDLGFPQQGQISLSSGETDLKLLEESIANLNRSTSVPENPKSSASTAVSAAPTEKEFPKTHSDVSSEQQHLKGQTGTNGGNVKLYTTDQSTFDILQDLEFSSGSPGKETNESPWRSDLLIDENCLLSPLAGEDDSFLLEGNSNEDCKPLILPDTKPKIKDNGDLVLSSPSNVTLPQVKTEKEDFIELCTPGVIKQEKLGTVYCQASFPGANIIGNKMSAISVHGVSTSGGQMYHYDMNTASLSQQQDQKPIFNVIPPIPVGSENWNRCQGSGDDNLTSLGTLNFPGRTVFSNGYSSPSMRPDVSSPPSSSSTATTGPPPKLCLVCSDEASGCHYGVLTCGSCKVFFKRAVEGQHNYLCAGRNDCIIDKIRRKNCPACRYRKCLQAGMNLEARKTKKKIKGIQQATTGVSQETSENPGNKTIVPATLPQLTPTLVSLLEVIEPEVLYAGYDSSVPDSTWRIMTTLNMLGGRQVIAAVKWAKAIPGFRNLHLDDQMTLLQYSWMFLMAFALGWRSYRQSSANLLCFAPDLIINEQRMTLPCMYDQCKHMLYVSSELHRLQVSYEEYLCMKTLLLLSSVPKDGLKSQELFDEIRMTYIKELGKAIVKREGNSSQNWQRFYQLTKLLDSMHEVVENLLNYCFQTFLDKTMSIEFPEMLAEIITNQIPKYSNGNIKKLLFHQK

Glucocorticoid receptor [2] = molecular target: T2, Glucocorticoid receptor; test: Displacement of fluorescent-labeled Dexamethasone from GR by fluorescent polarization assay
Progesterone receptor = molecular target: T3, Progesterone receptor (Homo sapiens, UniProt P06401); test: Binding affinity to PR
T3 sequence (P06401 whole entry): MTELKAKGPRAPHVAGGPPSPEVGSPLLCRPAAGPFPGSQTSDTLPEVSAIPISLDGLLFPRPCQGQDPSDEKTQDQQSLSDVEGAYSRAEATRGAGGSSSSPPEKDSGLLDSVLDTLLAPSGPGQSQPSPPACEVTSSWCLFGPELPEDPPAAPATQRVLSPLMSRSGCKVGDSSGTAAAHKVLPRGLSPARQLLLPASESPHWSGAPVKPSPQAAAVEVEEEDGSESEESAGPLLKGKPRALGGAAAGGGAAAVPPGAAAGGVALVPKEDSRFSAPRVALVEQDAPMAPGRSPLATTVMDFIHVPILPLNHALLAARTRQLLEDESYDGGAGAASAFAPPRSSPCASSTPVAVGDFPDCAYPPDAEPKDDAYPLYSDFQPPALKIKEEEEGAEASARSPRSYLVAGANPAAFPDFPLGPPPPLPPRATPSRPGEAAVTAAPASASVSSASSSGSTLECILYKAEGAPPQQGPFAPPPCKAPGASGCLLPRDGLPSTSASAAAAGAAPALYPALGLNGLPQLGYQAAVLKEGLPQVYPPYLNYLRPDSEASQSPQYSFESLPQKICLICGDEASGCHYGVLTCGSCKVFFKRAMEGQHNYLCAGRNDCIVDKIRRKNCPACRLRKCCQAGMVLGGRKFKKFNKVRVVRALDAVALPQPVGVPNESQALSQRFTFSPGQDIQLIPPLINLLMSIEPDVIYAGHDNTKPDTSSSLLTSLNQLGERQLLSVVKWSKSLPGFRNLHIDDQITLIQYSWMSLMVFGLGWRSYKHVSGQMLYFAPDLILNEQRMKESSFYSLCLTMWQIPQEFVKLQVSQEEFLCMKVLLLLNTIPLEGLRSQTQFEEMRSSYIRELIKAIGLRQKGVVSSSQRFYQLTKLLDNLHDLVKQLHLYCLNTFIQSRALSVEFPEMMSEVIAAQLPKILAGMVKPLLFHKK

Glucocorticoid receptor [3] = molecular target: T2, Glucocorticoid receptor; test: Activity at GR in human A549 cells by NF-kappaB transrepression assay; format: cell-based
[4] = Relative plasma concentration in mouse assessed as ratio of plasma concentration in mouse at 1 mg/kg, po to IC50 for NF-kappaB transrepression activity in A549 cells expressing MMTV reporter gene; format: ADME, organism-based; design: dose 1 mg/kg, route oral; settings: in vivo
Mus musculus [5] = test: Inhibition of IL1-induced circulating IL6 release in mouse at 1 mg/kg, po; format: functional
[6] = Relative fraction unbound in mouse assessed as ratio of fraction unbound in mouse at 10 mg/kg, po to IC50 for NF-kappaB transrepression activity in A549 cells expressing MMTV reporter gene; format: ADME, organism-based; design: dose 10 mg/kg, route oral; settings: in vivo
[7] = Toxicity in human skeletal muscle cells assessed as increase in glutamine synthase mRNA level after 18 hrs by PCR
[8] = Plasma concentration in mouse bearing mouse NIH-3T3 cells integrated with MMTV reporter gene at 10 mg/kg, po after 1 hr; format: ADME, organism-based, NIH3T3; design: dose 10 mg/kg, route oral
[9] = Relative plasma concentration in mouse assessed as ratio of plasma concentration in mouse at 0.1 mg/kg, po to IC50 for NF-kappaB transrepression activity in A549 cells expressing MMTV reporter gene; format: ADME, organism-based; design: dose 0.1 mg/kg, route oral; settings: in vivo
[10] = Plasma concentration in mouse bearing mouse NIH-3T3 cells integrated with MMTV reporter gene at 0.01 mg/kg, po after 1 hr; format: ADME, organism-based, NIH3T3; design: dose 0.01 mg/kg, route oral
Hepatocyte = test: Toxicity in human hepatocytes assessed as increase in PEPCK mRNA level after 18 hrs by PCR; format: cell-based
[11] = Plasma concentration in mouse bearing mouse NIH-3T3 cells integrated with MMTV reporter gene at 1 mg/kg, po after 1 hr; format: ADME, organism-based, NIH3T3; design: dose 1 mg/kg, route oral
[12] = Relative plasma concentration in mouse assessed as ratio of plasma concentration in mouse at 0.01 mg/kg, po to IC50 for NF-kappaB transrepression activity in A549 cells expressing MMTV reporter gene; format: ADME, organism-based; design: dose 0.01 mg/kg, route oral; settings: in vivo
[13] = Plasma concentration in mouse bearing mouse NIH-3T3 cells integrated with MMTV reporter gene at 0.1 mg/kg, po after 1 hr; format: ADME, organism-based, NIH3T3; design: dose 0.1 mg/kg, route oral
Mus musculus [14] = test: Inhibition of IL1-induced circulating IL6 release in mouse at 10 mg/kg, po; format: functional
[15] = Relative fraction unbound in mouse assessed as ratio of fraction unbound in mouse at 0.1 mg/kg, po to IC50 for NF-kappaB transrepression activity in A549 cells expressing MMTV reporter gene; format: ADME, organism-based; design: dose 0.1 mg/kg, route oral; settings: in vivo
Mus musculus [16] = test: Inhibition of IL1-induced circulating IL6 release in mouse at 0.01 mg/kg, po; format: functional
[17] = Relative fraction unbound in mouse assessed as ratio of fraction unbound in mouse at 0.01 mg/kg, po to IC50 for NF-kappaB transrepression activity in A549 cells expressing MMTV reporter gene; format: ADME, organism-based; design: dose 0.01 mg/kg, route oral; settings: in vivo
[18] = Relative plasma concentration in mouse assessed as ratio of plasma concentration in mouse at 10 mg/kg, po to IC50 for NF-kappaB transrepression activity in A549 cells expressing MMTV reporter gene; format: ADME, organism-based; design: dose 10 mg/kg, route oral; settings: in vivo
[19] = Antiinflammatory activity in human primary synovial fibroblasts assessed as inhibition of IL1-induced IL8 release after 18 hrs by MSD technology; format: functional
Mus musculus [20] = test: Inhibition of IL1-induced circulating IL6 release in mouse at 0.1 mg/kg, po; format: functional
[21] = Relative fraction unbound in mouse assessed as ratio of fraction unbound in mouse at 1 mg/kg, po to IC50 for NF-kappaB transrepression activity in A549 cells expressing MMTV reporter gene; format: ADME, organism-based; design: dose 1 mg/kg, route oral; settings: in vivo
[22] = Antiinflammatory activity in human primary synovial fibroblasts assessed as inhibition of IL1-induced MMP1 release after 18 hrs by MSD technology; format: functional
[23] = Antiinflammatory activity in human primary synovial fibroblasts assessed as inhibition of IL1-induced IL6 release after 18 hrs by MSD technology; format: functional

O=S(=O)(Nc1ccc(-c2ccc3c(cnn3-c3ccc(F)cc3)c2)c(C(F)(F)F)c1)c1cccc(C(F)(F)F)c1
IC50 (Androgen receptor): 3.98 µM
EC50 (Glucocorticoid receptor [1]): 200 nM
IC50 (Glucocorticoid receptor [2]): 50.1 nM
IC50 (Progesterone receptor): > 10 µM
IC50 (Glucocorticoid receptor [3]): 63.1 nM

O=S(=O)(Nc1ccc(-c2ccc3c(cnn3-c3ccc(F)cc3)c2)c(C(F)(F)F)c1)c1cccc(OC(F)(F)F)c1
IC50 (Androgen receptor): > 10 µM
EC50 (Glucocorticoid receptor [1]): 251 nM
IC50 (Glucocorticoid receptor [2]): 39.8 nM
IC50 (Progesterone receptor): > 10 µM
IC50 (Glucocorticoid receptor [3]): 79.4 nM

CCN(c1ccccc1)S(=O)(=O)c1ccc(-c2ccc3c(cnn3-c3ccc(F)cc3)c2)c(C(F)(F)F)c1
IC50 (Androgen receptor): > 10 µM
EC50 (Glucocorticoid receptor [1]): 200 nM
IC50 (Glucocorticoid receptor [2]): 15.8 nM
IC50 (Progesterone receptor): > 10 µM
IC50 (Glucocorticoid receptor [3]): 126 nM

CCCN(c1ccccc1)S(=O)(=O)c1ccc(-c2ccc3c(cnn3-c3ccc(F)cc3)c2)c(C(F)(F)F)c1
IC50 (Androgen receptor): > 10 µM
EC50 (Glucocorticoid receptor [1]): 316 nM
IC50 (Glucocorticoid receptor [2]): 15.8 nM
IC50 (Progesterone receptor): > 10 µM
IC50 (Glucocorticoid receptor [3]): 316 nM

CC(C)N(c1ccccc1)S(=O)(=O)c1ccc(-c2ccc3c(cnn3-c3ccc(F)cc3)c2)c(C(F)(F)F)c1
IC50 (Androgen receptor): > 10 µM
EC50 (Glucocorticoid receptor [1]): 126 nM
IC50 (Glucocorticoid receptor [2]): 15.8 nM
IC50 (Progesterone receptor): > 2.51 µM
IC50 (Glucocorticoid receptor [3]): 50.1 nM

CCCCN(c1ccccc1)S(=O)(=O)c1ccc(-c2ccc3c(cnn3-c3ccc(F)cc3)c2)c(C(F)(F)F)c1
IC50 (Androgen receptor): > 10 µM
EC50 (Glucocorticoid receptor [1]): > 10000 nM
IC50 (Glucocorticoid receptor [2]): 25.1 nM
IC50 (Progesterone receptor): > 10 µM
IC50 (Glucocorticoid receptor [3]): > 10000 nM

C[C@@H]1C[C@H]2[C@@H]3CCC4=CC(=O)C=C[C@]4(C)[C@@]3(F)[C@@H](O)C[C@]2(C)[C@@]1(O)C(=O)CO [DEXAMETHASONE]
fold change (FC) [4]: 300
inhibition in vivo at 1 mg/kg (Mus musculus [5]): 88%
fold change (FC) [6]: 870
Activity [7]: Toxic
concentration at 1 h [8]: 17.7 µM
fold change (FC) [9]: 40
concentration at 1 h [10]: 44 nM
Activity (Hepatocyte): Toxic
concentration at 1 h [11]: 1800 nM
fold change (FC) [12]: 7
concentration at 1 h [13]: 236 nM
inhibition in vivo at 10 mg/kg (Mus musculus [14]): 83%
fold change (FC) [15]: 8
inhibition in vivo at 0.01 mg/kg (Mus musculus [16]): 24%
fold change (FC) [17]: 0.4
fold change (FC) [18]: 2944
IC50 [19]: 0.501 nM
inhibition in vivo at 0.1 mg/kg (Mus musculus [20]): 67%
fold change (FC) [21]: 86
IC50 [22]: 0.316 nM
IC50 [23]: 0.631 nM
